Read-outs that look alike come from different tables or passages of the source.
Columns and labels:
E. Coli (ATCC 43888) = type: cell-based; settings: inoculum 6.87-log, about 33° F.
[1] = Hypochlorous acid stability and shelf life, DPD assay (Table 10, FIG. 1); type: physicochemical
[2] = Spinach leaf 25 grams, 180 min.

| Molecule | Antimicrobial activity (log reduction) of single components (E. Coli (ATCC 43888); Spinach leaf 25 grams, 2 min.) [log] | Antimicrobial activity (log reduction) of single components (E. Coli (ATCC 43888); Spinach leaf 25 grams, 30 min.) [log] | Antimicrobial activity (log reduction) of single components (E. Coli (ATCC 43888); [2]) [log] | Antimicrobial activity (log reduction) of single components (E. Coli (ATCC 43888); Strawberry 25 grams, 2 min.) [log] | Antimicrobial activity (log reduction) of single components (E. Coli (ATCC 43888); Strawberry 25 grams, 30 min.) [log] | Antimicrobial activity (log reduction) of single components (E. Coli (ATCC 43888); Strawberry 25 grams, 180 min.) [log] | level of hypochlorous acid in solution ([1]; in the absence of diol at pH 7) [%] | level of hypochlorous acid in solution ([1]; in the presence of diol at pH 4, at about 4 hours) [%] |
| --- | --- | --- | --- | --- | --- | --- | --- | --- |
| Octyl Phenol Ethoxylate [Octyl Phenol Ethoxylate (0.5 wgt. %)] | 1.15 | 2.47 | 3.11 | 1.05 | 2.78 | 3.9 | – | – |
| OCl [hypochlorous acid] | – | – | – | – | – | – | 100 | 0 |
| BrBr [Bromine (0.08 wgt. %), Bromine] | 2.11 | 3.28 | 4.44 | 2.32 | 3.32 | 4.89 | – | – |
| O=[O+][O-] [Ozone (0.001 wgt. %), Ozone] | 2.34 | 2.58 | 3.63 | 2.89 | 3.12 | 4.12 | – | – |

Source: US9259006B2, “Antimicrobial compositions and methods of use thereof” (priority 2008, dated 2016)
